Holding throughout (format): cell-based, human
Assay [1] has as its system BxPC3 cells. The assay is described as follows: Viability assay (CellTiter Blue), BxPC3 cells, hypoxia vs normoxia. To be noted: for Index [3] Selectivity index (IC50 [2]/IC50 [1]): BxPC3, normoxic IC50 / hypoxic IC50. On the procedure:
(§1) PANC-1 and HaCat cells (PANC-1: RRID:CVCL 0480, taken from a person, HaCat: RRID:CVCL 0038) were cultured in DMEM (Gibco, Cat #: 21969-035) supplemented with FBS (10%, Gibco, Cat #: A31698-02), Penicillin/Streptomycin (1%, Sigma-Aldrich, Cat #: P0781), and Ala-Gln (200 μM, Sigma-Aldrich, Cat #: G8541). BxPC3 cells (RRID:CVCL 0186, taken from a person) were cultured in RPMI 1640 (Gibco, Cat #: 61870-010) supplemented with FBS (10%) and Penicillin/Streptomycin (1%). U2OS (RRID:CVCL 0042) and HCT116 cells (RRID:CVCL 0291, ATCC CCL-247) were cultured in McCoy's 5A (Sigma cat. no. M9309) supplemented with FBS (10%) and Penicillin/Streptomycin (1%). Cells were grown under normoxic conditions in T75 flasks (Biolite, Thermo Scientific, Cat #: 130190) in a humidified atmosphere with 5% CO2 at 37° C. For hypoxic conditions cells were placed in a modular incubator chamber (MIC-101, Billups-Rothenberg) equipped with a 10-cm dish with milliQ water and flushed with CO2/N2 (5%/95%, BioNERT, AGA Cat #: 100466065) for 8 minutes at 20-25 L/minute. Cells were passaged approximately every third day by trypsination (Sigma-Aldrich, Cat #: T4049) followed by transfer of ⅕^th of the cells to a new flask. All cell cultures were handled aseptically in a laminar air flow bench and grown in sterile-filtered (Jetbiofil, Cat #: FPE204500) medium according to ATCC's recommendations. All human cell lines were correctly identified by short tandem repeat analysis and tested free of mycoplasma contamination by MycoAlert (Lonza, Cat #: LT07-218).
(§2) Cells were seeded in black 96-well plates (2000 cells/well, 75 μL/well, ThermoFisher Scientific, Cat #: 137103) in complete medium. Subsequently, the cells were allowed to adhere to the substratum overnight. The next day, compounds were serially diluted in DMSO as 200× solutions. The 200× solutions of compounds were initially diluted in complete medium to 4× solutions containing 2% DMSO. Finally, the compounds were given to cells by the addition of 25 μL/well in triplicates resulting in 1× solutions of compounds in 100 μL/well. The cells were then incubated under either normoxia or hypoxia. 90 minutes before the end of the experiment, all cells were given CellTiter Blue (20 μL/well, Promega, Cat #: G8080) and reincubated under normoxia for the remaining time of the experiment. The viability of the cells was assessed by measuring fluorescence in a plate reader (ex/em: 552±10/598±10, Tecan Spark 10M). Data were normalized to the two lowest concentrations of compound and fitted to a 4-parameter nonlinear regression in Prism 7.04 for Windows, GraphPad Software, La Jolla Calif. USA. IC50 values were extrapolated as the X value at Y=50%. Results can be found in Table 1 and the corresponding dose-response curves seen in FIGS. 12 to 17 and in FIGS. 9 to 10.
Background: Resazurin is reduced to fluorescent resorufin, in cell work by metabolically active cells.

Assay [2] concerns PANC-1 cells. The assay is described as follows: Viability assay (CellTiter Blue), PANC-1 cells, hypoxia vs normoxia. To be noted: for Index [3] Selectivity index (IC50 [2]/IC50 [1]): PANC1, normoxic IC50 / hypoxic IC50. The procedure:
as §1, §2

The test system of assay [3] is HCT116 cells. Description: Viability assay (CellTiter Blue), HCT116 cells, hypoxia vs normoxia. To be noted: for Index [3] Selectivity index (IC50 [2]/IC50 [1]): HCT116, normoxic IC50 / hypoxic IC50. The procedure: as §1, §2
Setting [4] is: BxPC3, hypoxic conditions, read-out: IC50 (μM) [1].
Where [5] appears, read: BxPC3, normoxic conditions, read-out: IC50 (μM) [2].
Where [6] appears, read: PANC1, hypoxic conditions, read-out: IC50 (μM) [1].
[7] abbreviates: PANC1, normoxic conditions, read-out: IC50 (μM) [2].
Setting [8] is: HCT116, hypoxic conditions, read-out: IC50 (μM) [1].
The mark [9] stands for this setting: HCT116, normoxic conditions, read-out: IC50 (μM) [2].

As usually defined, the IC50 is the concentration at which inhibition is half-maximal.

Like-named read-outs stand apart in the source and are kept apart here.

`CCCCCCCCCCCCc1ccc2c(c1)OC[C@H](CCCCNC(=O)OC(C)(C)C)NC(=O)CN(C)C(=O)/C=C/[C@H](CO)NC2=O` [PH908, tert-butyl (4-((3S,11R,E)-16-dodecyl-11-(hydroxymethyl)-7-methyl-5,8,13-trioxo-2,3,4,5,6,7,8,11,12,13-decahydrobenzo[n][1]oxa-[4,7,12]triazacyclopentadecin-3-yl)butyl)carbamate]: the IC50 is greater than 50 µM in assay [1] (setting [4]); greater than 50 µM in assay [1] (setting [5]); greater than 50 µM in assay [2] (setting [6]); greater than 50 µM in assay [2] (setting [7]); 14.7 µM in assay [3] (setting [8]); 17.4 µM in assay [3] (setting [9]). Moreover, in assay [3], the “Index [3] Selectivity index (IC50 [2]/IC50 [1])” value (shortened to “Index [3] Selectivity index”) came out at 1.2.

Turning to `C=C1/C=C/C(=O)N(C)CC(=O)N[C@@H](CC(=O)OC)COc2cc(CCCCCCCCCCCC)ccc2C(=O)N1` [PH832, Methyl (S,E)-2-(16-dodecyl-7-methyl-11-methylene-5,8,13-trioxo-2,3,4,5,6,7,8,11,12,13-decahydrobenzo[n][1]oxa[4,7,12]-triazacyclopentadecin-3-yl)acetate], the IC50 in assay [2] (setting [6]) amounted to 4.3 µM; in assay [2] (setting [7]), 23.3 µM; in assay [3] (setting [8]), 5 µM; in assay [3] (setting [9]), 5.6 µM. Also, the “Index [3] Selectivity index” value in assay [2] was determined as 5.4; in assay [3] it was 1.1.

As to `C#CCNC(=O)C[C@H]1COc2cc(CCCCCCCCCCCC)ccc2C(=O)NC(=C)/C=C/C(=O)N(C)CC(=O)N1` [PH845, (S,E)-2-(16-dodecyl-7-methyl-11-methylene-5,8,13-trioxo-2,3,4,5,6,7,8,11,12,13-decahydrobenzo[n][1]oxa[4,7,12]-triazacyclopentadecin-3-yl)-N-(prop-2-yn-1-yl)acetamide], the half-maximal inhibitory concentration (IC50) in assay [2] (setting [6]) was 3.1 µM; in assay [2] (setting [7]), greater than 50 µM; in assay [3] (setting [8]), 4.2 µM; in assay [3] (setting [9]), greater than 50 µM. For the same molecule, the “Index [3] Selectivity index” value was greater than 16.4 in assay [2] and greater than 12.4 in assay [3].

With `C=C1/C=C/C(=O)N(C)CC(=O)N2CCC[C@H]2COc2cc(CCCCCCCCCCCC)ccc2C(=O)N1` [PH921, (S,E)-16-dodecyl-7-methyl-11-methylene-2,3,6,7,11,12,19,19a-octahydro-1H,5H-benzo[n]pyrrolo[2,1-c][1]oxa[4,7,12]triazacyclo-pentadecine-5,8,13-trione], the IC50 in assay [1] (setting [4]) was determined as 6 µM; in assay [1] (setting [5]), 12.3 µM; in assay [2] (setting [6]) it was 2.6 µM; in assay [2] (setting [7]), 13.7 µM; in assay [3] (setting [8]) it was 2.6 µM; in assay [3] (setting [9]), 8.4 µM. In addition, the “Index [3] Selectivity index” value in assay [1] was 2.1; in assay [2], 5.3; in assay [3], 3.3.

Consider `CCCCCCCCCCCCc1ccc2c(c1)OCCNC(=O)CN(C)C(=O)/C=C/C(CO)NC2=O` (stereo not shown) [PH462, (E)-16-dodecyl-11-(hydroxymethyl)-7-methyl-3,4,6,7,11,12-hexahydro-benzo[n][1]oxa[4,7,12]triazacyclopentadecine-5,8,13(2H)-trione], for which the IC50 in assay [1] (setting [4]), in assay [1] (setting [5]), in assay [2] (setting [6]), in assay [2] (setting [7]), in assay [3] (setting [8]) and in assay [3] (setting [9]) was greater than 50 µM in each case.

Take `CCCCCCCCCCCCc1ccc2c(c1)OC[C@H](CC(=O)OC)NC(=O)CN(C)C(=O)/C=C/[C@H](CO)NC2=O` [PH830, Methyl 2-((3S,11R,E)-16-dodecyl-11-(hydroxymethyl)-7-methyl-5,8,13-trioxo-2,3,4,5,6,7,8,11,12,13-decahydrobenzo[n][1]oxa[4,7,12]-triazacyclopentadecin-3-yl)acetate]: the IC50 in assay [1] (setting [4]), in assay [1] (setting [5]), in assay [2] (setting [6]), in assay [2] (setting [7]), in assay [3] (setting [8]) and in assay [3] (setting [9]) was greater than 50 µM in each case.

Turning to `C=C1/C=C/C(=O)N(C)CC(=O)N2CC(F)(F)C[C@H]2COc2cc(CCCCCCCCCCCC)ccc2C(=O)N1` [PH905, (S,E)-16-dodecyl-2,2-difluoro-7-methyl-11-methylene-2,3,6,7,11,12,19,19a-octahydro-1H,5H-benzo[n]pyrrolo[2,1-c][1]oxa-[4,7,12]triazacyclopentadecine-5,8,13-trione], the IC50 in assay [1] (setting [4]) was found to be 5.5 µM; in assay [1] (setting [5]), 6.3 µM; in assay [2] (setting [6]) it was 5.4 µM; in assay [2] (setting [7]), 5.8 µM; in assay [3] (setting [8]) it was 3.7 µM; in assay [3] (setting [9]), 3.5 µM. For the same molecule, the entries for the “Index [3] Selectivity index” value in assay [1], in assay [2] and in assay [3] were 1.1, 1.1 and 1.0, respectively.

In the case of `C=C1/C=C/C(=O)N(C)CC(=O)N[C@@H](CC(=O)N2CCOCC2)COc2cc(CCCCCCCCCCCC)ccc2C(=O)N1` [PH741, (S,E)-16-dodecyl-7-methyl-11-methylene-3-(2-morpholino-2-oxoethyl)-3,4,6,7,11,12-hexahydrobenzo[n][1]oxa[4,7,12]triazacyclopentadecine-5,8,13(2H)-trione], the IC50 in assay [2] (setting [6]) worked out at 7.8 µM; in assay [2] (setting [7]), 16.3 µM; in assay [3] (setting [8]), 3.3 µM; in assay [3] (setting [9]), 16.2 µM. Besides, the entries for the “Index [3] Selectivity index” value in assay [2] and in assay [3] were 2.1 and 4.9, respectively.

Turning to `Cn1c(COP(=O)(NCCBr)NCCBr)cnc1[N+](=O)[O-]` [TH302, Evofosfamide, reference compound], the “Index [3] Selectivity index” value is 3.4 in assay [1], 7.2 in assay [2] and 6.9 in assay [3]. Also, the IC50 in assay [1] (Homo sapiens, BXPC-3, BxPC3, hypoxic conditions, read-out: IC50 (μM) [1]) was 21 µM; in assay [1] (Homo sapiens, BXPC-3, BxPC3, normoxic conditions, read-out: IC50 (μM) [2]) it was 71 µM; in assay [2] (Homo sapiens, PANC-1, PANC1, hypoxic conditions, read-out: IC50 (μM) [1]) it was 9.4 µM; in assay [2] (Homo sapiens, PANC-1, PANC1, normoxic conditions, read-out: IC50 (μM) [2]) it was 69 µM; in assay [3] (Homo sapiens, HCT-116, HCT116, hypoxic conditions, read-out: IC50 (μM) [1]) it was 6.2 µM; in assay [3] (Homo sapiens, HCT-116, HCT116, normoxic conditions, read-out: IC50 (μM) [2]), 43 µM.

Take `C=C1/C=C/C(=O)N(C)CC(=O)N[C@@H](CC(=O)NC2CC2)COc2cc(CCCCCCCCCCCC)ccc2C(=O)N1` [PH906, (S,E)-N-cyclopropyl-2-(16-dodecyl-7-methyl-11-methylene-5,8,13-trioxo-2,3,4,5,6,7,8,11,12,13-decahydrobenzo[n][1]oxa[4,7,12]-triazacyclopentadecin-3-yl)acetamide]: the IC50 is 2.3 µM in assay [2] (setting [6]), greater than 28 µM in assay [2] (setting [7]), 1.4 µM in assay [3] (setting [8]) and greater than 28 µM in assay [3] (setting [9]). Moreover, the “Index [3] Selectivity index” value in assay [2] is on record as greater than 12.1; in assay [3], greater than 20.7.

The values above are taken from patent US12415789B2, “Macrocycles comprising a 4-amido-2,4-pentadienoate moiety for the treatment of hypoxic cancers” (Aarhus Universitet, priority 2019, dated 2025).
